Test results taken from patent US6599917B1, “Quinuclidine compounds and drugs containing the same as the active ingredient” (priority 1999, dated 2003).

What was measured:
[1] = molecular target: T1, squalene synthesizing enzyme (Rattus norvegicus, UniProt Q02769); assay: Measurement of squalene synthesizing enzyme inhibitive activity by using a rat liver microsome; assay type: biochemical; settings: [3H]-farnesylpyrophosphoric acid
T1 construct: The liver was excised from a male Spraugue-Dawly rat; from tissue; host or cells: liver microsome fraction of male Sprague-Dawley rat (8 to 9 weeks)
T1 sequence (Q02769 1-416): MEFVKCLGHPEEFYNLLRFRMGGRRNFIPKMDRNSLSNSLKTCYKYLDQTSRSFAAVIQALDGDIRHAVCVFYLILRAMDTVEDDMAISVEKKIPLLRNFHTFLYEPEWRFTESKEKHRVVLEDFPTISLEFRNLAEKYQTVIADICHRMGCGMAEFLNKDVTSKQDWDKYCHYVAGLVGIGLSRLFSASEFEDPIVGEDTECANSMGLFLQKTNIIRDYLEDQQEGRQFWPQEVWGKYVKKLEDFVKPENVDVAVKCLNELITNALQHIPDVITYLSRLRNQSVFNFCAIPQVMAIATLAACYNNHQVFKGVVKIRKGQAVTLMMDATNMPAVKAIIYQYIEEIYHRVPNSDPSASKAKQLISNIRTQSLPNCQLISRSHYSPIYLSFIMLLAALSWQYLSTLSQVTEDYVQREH
Protocol: Measurement of Squalene Synthesizing Enzyme Inhibitive Activity by Using a Rat Liver Microsome
(I) The reaction was run on a scale of 500 μ1. 200 µl of a solution containing 125 mM tris-hydrochloric acid (pH: 7.3), 2.5 mM magnesium chloride, 5 mM potassium fluoride and 10 mM reduction type nicotinamidoadenine dinucleotide phosphoric acid, 100 µl of the specimen solution with a 5-fold concentration, 100 µl of distilled water and 50 µl of 0.4 to 1 mg/ml rat liver microsome prepared by the following method were mixed.
(II) The above mixture was pre-incubated at 37° C. for 10 minutes and thereafter, 50 µl of 100 μM [^3H]-farnesylpyrophosphoric acid (30 mCi/mmol, NEN) was added to the mixture to start a reaction. The reaction was continued at 37° C. for 10 minutes. 1 ml of ethanol was added to the resulting mixture to terminate the reaction and then 1 ml of distilled water and 3 ml of petroleum ether were added to the reaction solution, which was then shaken for 30 minutes. The water phase was separated from the oil phase, the water phase was frozen at −70° C. in dry ice/methanol and the radiative activity of the organic phase was measured using a liquid scintillator. Or the organic phase was evaporated to dryness using nitrogen gas and the residue was dissolved as a marker in 25 µl of chloroform containing squalene, farnesol and cholesterol. This sample was spotted on a TCL plate (Merck) and developed using heptane for 15 to 20 minutes. A band of squalene was cut from the plate to measure the radiative activity by using a liquid scintillation counter. The data was expressed by a concentration (IC50) at which 50% of the radiative activity of a control group was inhibited.
Method of the Preparation of a Rat Liver Microsome
The following operations were all carried out on ice and the centrifugation was performed at 4° C. The liver was excised from a male Spraugue-Dawly rat (hereinafter referred to as SD rat) (8 to 9 weeks age) and perfused with 1.15% potassium chloride to remove the blood. Then, the liver was minced using a forceps and the minced liver was homogenized using a Teflon homogenizer. The resulting sample was centrifuged at 16000×g twice for 15 minutes. The supernatant was further centrifuged at 105000×g for 60 minutes. The obtained deposit was determined as a microsome fraction, which was then suspended in a 25 mM tris-hydrochloric acid solution. The concentration of protein was measured quantitatively by a Bradford method and the concentration of protein was adjusted to 20 mg/ml by using the same solution. The resulting solution was stored at […].

[2] = test system: cholesterol biosynthesis; assay: Measurement of cholesterol biosynthesis inhibitive activity in a rat liver cell; assay type: cell-based; settings: isolated rat liver cells, [1-14C]acetic acid added 10 minutes after the specimen
Protocol: (§1) Measurement of Cholesterol and Triglyceride Biosynthesis Inhibitive Activities in a Rat Liver Cell
(§2) A liver cell was isolated from a male SD rat according to a usual method (collagenase perfusion method) and subjected to an experiment.
(§3) The isolated liver cells were planted in an amount of 500 μ1 every well on a Type collagen coated 24 well plate (cell density: 4×10^5 cell/ml). As the cell culture solution, a Williams'E medium (adjusted to pH 7.4) containing 10% FCS, 1 μM insulin, 1 μM dexamethasone, 100 units/ml penicillin and 10 μg/ml streptomycin was used. After the liver cells were incubated in a CO2 incubator for 2 hours, unstuck cells were removed and the liver cells were further incubated overnight.
(§4) After the culture medium was exchanged, the specimen diluted in a 10% DMSO-90% cell culture solution was added to each well in an amount of 5 μ1. DMSO (final concentration: 0.1%) was added to a control group. A [1-^14C]Acetic acid, sodium salt (5 μCi/well) was added to the media 10 minutes and 4 hours after the specimen was added for the measurement of cholesterol synthesis inhibitive action and for the measurement of triglyceride synthesis inhibitive action respectively, followed by culturing for further 2 hours.
(§5) After the cultivation was finished, the supernatant was removed and the cells were washed using PBS(−)(Phosphate buffered saline (Ca^2+, Mg^2+free) twice. Hexane/isopropyl alcohol (3:2, v/v) was added to the cells and the cells were then allowed to stand for 10 minutes to extract intracellular lipid. The extract was transferred to a glass tube and exsiccated under a nitrogen gas stream. Further, the exsiccated extract was washed with 25 mL of petroleum ether and then dissolved in petroleum ether containing the following components: 0.01% squalene, 0.3% free cholesterol, 0.3% cholesterol acetate, 0.1% triolein, 0.01% farnesol and 0.3% lanosterol.
(§6) The resulting solution was spotted on a TLC plate to perform an isolating operation. The spotted solution was developed for 10 minutes by using toluene/isopropyl ether (1:1, v/v) as the solvents and for further 15 minutes by using heptane in place of the above solvent after it was dried using air.
(§7) After the development was finished, the TLC plate was subjected to iodine color development. After each position of free cholesterol and triolein which were used as standards was confirmed, the image of the TLC plate was transferred to a BAS 2000 (Fuji Film) imaging plate by exposure performed for 16 hours. This transferred image was analyzed using a BAS 2000 IP Reader and an Imaging analyzer II to measure radiative activities contained in the free cholesterol and triglyceride fractions.
(§8) The cholesterol biosynthesis inhibitive activity was expressed by a concentration (IC50) at which 50% of the radiative activity of the control group was inhibited and the triceride biosynthesis inhibitive activity was expressed by an inhibition rate (%) to the control group.

[3] = test system: triglyceride biosynthesis; assay: Measurement of triglyceride biosynthesis inhibitive activity in a rat liver cell; assay type: cell-based; settings: for inhibition at 1 µM: Rattus norvegicus, 6 h, read-out: Triglyceride biosynthesis inhibitive activity inhibition in 1 μM of the specimen; for Triglyceride biosynthesis inhibitive activity inhibition in 1 μM of the specimen: isolated rat liver cells, [1-14C]acetic acid added 4 hours after the specimen, inhibition rate to control group
Protocol: as §1, §2, §3, §4, §5, §6, §7, §8

[4] = test system: cholesterol biosynthesis; assay: Measurement of cholesterol biosynthesis inhibitive activity in a rat; assay type: in vivo; settings: 2 h, male SD rat, oral, inhibition rate to control group
Protocol: Measurement of Cholesterol Biosynthesis Inhibitive Activity in a Rat
(I) An SPF grade male SD rat (4 weeks age, SLC) was bred for more than one week in a day-night-reversal room and subjected to an experiment made in the daytime. The compound dissolved in a 2% Tween 80 solution was administered (5 ml/kg) to the rat using an oral sonde. After one hour, a [1-^14C]Acetic acid, sodium salt (1.67-2.22 GBq/mmol, 37 MBq/ml, NEN) prepared by diluting to 1.85 MBq/ml by using physiological saline was intraabdominally administered (300 μ1/animal). After one hour, the rat was anesthetized by diethyl ether to carry out exsanguination from the aorta abdominalis. The collected blood was centrifuged at 3000 rpm for 10 minutes to prepare blood plasma.
(II) 1 ml of 4N KOH and 1 ml of ethanol were added to 2 ml of the blood plasma, which was then incubated at 65° C. for one hour and there after, 3 ml of petroleum ether was added. The plasma was shaken for 30 minutes. After the water phase was separated from the organic phase by centrifugation, it was frozen at −80° C. and the radiative activity of the organic phase was measured using a liquid scintillation counter. Or the organic phase was evaporated to dryness using nitrogen gas and the residue was dissolved as a marker in 25 µl of chloroform containing squalene, farnesol and cholesterol. This sample was applied to a TCL plate (Merck) and developed using toluene and isopropyl ether (1:1) for 15 to 20 minutes. A band of cholesterol was cut from the plate to measure the radiative activity by using a liquid scintillation counter. The cholesterol biosynthesis inhibition activity was expressed by an inhibition rate (%) to a control group.

Row | Compound | IC50 [1] | IC50 ([2]; 10 min) | inhibition at 1 µM [3] | other results
1 | O=C1N(c2ccc(C#C[C@@]3(O)CN4CCC3CC4)c(Cc3ccccc3)n2)CCC12OCCO2 [Example 138, (3R)-3-[2-Benzyl-6-(3,3-ethylenedioxy-2-pyrrolidinone-1-yl)-3-pyridyl]ethynyl-3-quinuclidinol] | 0.00035 µM | 0.014 µM | – | –
2 | CO[C@@H]1CN(c2ccc(C#C[C@@]3(O)CN4CCC3CC4)c(Cc3ccccc3)n2)C[C@@H]1F [Example 110] | 0.0021 µM | – | 84% | –
3 | (3R)-3-[Benzyl-6-(3,3-ethylenedioxypyrrolidine-1-yl]-3-pyridyl]ethynyl-3-quinuclidinol [Example 118] | 0.0025 µM | – | – | Triglyceride biosynthesis inhibitive activity inhibition in 1 μM of the specimen [3]: 85%; IC50 [2]: 0.075 µM
4 | O[C@]1(C#Cc2ccc(OCCCF)nc2Cc2ccccc2)CN2CCC1CC2 [Example 150, (3R)-3-[2-Benzyl-6-(3-fluoropropyl)oxy-3-pyridyl]ethynyl-3-quinuclidinol] | – | – | 80% | inhibition in vivo at 1 mg/kg ([4]; dose 1 mg/kg): 73%
5 | OCCCOc1ccc(C#C[C@@]2(O)CN3CCC2CC3)c(Cc2ccccc2)n1 [Example 166, (3R)-3-[2-Benzyl-6-(3-hydroxypropyl)oxy-3-pyridyl]ethynyl-3-quinclidinol] | 0.015 µM | – | 82% | –
6 | COC(C)COc1ccc(C#C[C@]2(O)CN3CCC2CC3)c(Cc2ccccc2)n1 (stereo partly drawn) [Example 149, (3S)-3-[2-Benzyl-6-(2-methoxypropyl)oxy-3-pyridyl]ethynyl-3-quinuclidinol] | – | 0.59 µM | – | –
7 | O[C@]1(C#Cc2cnc(C3=COCCO3)cc2Cc2ccccc2)CN2CCC1CC2 [Example 186, (3R)-3-[4-Benzyl-2-(1,4-dioxene-2-yl)-5-pyridyl]ethynyl-3-quinuclidinol] | – | – | – | IC50 [2]: 0.069 µM
8 | O[C@]1(C#Cc2cnc(-c3cccnc3)cc2Cc2ccccc2)CN2CCC1CC2 [Example 176, (3R)-3-[4-Benzyl-2-(3-pyridyl)-5-pyridyl]ethynyl-3-quinuclidinol] | – | – | 74% | –
9 | CO[C@@H]1CN(c2nc(Cc3ccccc3)c(C#C[C@@]3(O)CN4CCC3CC4)cc2Cl)C[C@H]1O [Example 116, (3R)-(3R)-3-[2-Benzyl-5-chloro-6[(3R,4R)-3-hydroxy-4-methoxypyrrolidine-1-yl]-3-pyridyl]ethynyl-3-quinuclidinol] | 0.00077 µM | 0.072 µM | – | –
10 | CO[C@@H]1CN(c2nc(Cc3ccccc3)c(C#C[C@@]3(O)CN4CCC3CC4)cc2Br)C[C@H]1O [Example 117, (3R)-3-[2-Benzyl-5-bromo-6-[(3R,4R)-3-hydroxy-4-methoxypyrrolidine-1-yl]-3-pyridyl]ethynyl-3-quinuclidinol] | 0.0045 µM | 0.079 µM | – | –
11 | O[C@]1(C#Cc2cnc(-c3ccccn3)cc2Cc2ccccc2)CN2CCC1CC2 [Example 179, (3R)-3-[4-Benzyl-2-(2-pyridyl)-5-pyridyl]ethynyl-3-quinuclidinol] | – | 0.13 µM | 84% | –
12 | (3R)-3-[4-Benzyl-2-[(3R,4R)-3-hydroxy-4-methoxypyrrolidine-1-yl]-3-pyrimidyl]ethynyl-3-quinuclidinol [Example 201] | 0.0016 µM | – | – | Triglyceride biosynthesis inhibitive activity inhibition in 1 μM of the specimen [3]: 85%
13 | CO[C@H]1C(=O)N(c2ccc(C#C[C@@]3(O)CN4CCC3CC4)c(Cc3ccccc3)n2)C[C@H]1O [Example 124, (3R)-3-[2-Benzyl-6-[(3R,4R)-4-hydroxy-3-methoxy-2-pyrrolidinone-1-yl]-3-pyridyl]ethynyl-3-quinuclidinol] | 0.0018 µM | 0.081 µM | 79% | –
14 | CO[C@H]1CN(c2ccc(C#C[C@@]3(O)CN4CCC3CC4)c(Cc3ccccc3)n2)C[C@H]1O [Example 106, (3R)-3-[2-Benzyl-6-[(3R,4S)-3-hydroxy-4-methoxypyrrolidine-1-yl)-3-pyridyl]ethynyl-3-quinuclidinol] | 0.0069 µM | – | 81% | –
15 | COC(C)COc1ccc(C#C[C@@]2(O)CN3CCC2CC3)c(Cc2ccccc2)n1 (stereo partly drawn) [Example 148, (3R)-3-[2-Benzyl-6-(2-methoxypropyl)oxy-3-pyridyl]ethynyl-3-quinuclidinol] | – | 0.16 µM | – | inhibition in vivo at 3 mg/kg ([4]; dose 3 mg/kg): 92%
16 | CO[C@H]1CN(c2ccc(C#C[C@@]3(O)CN4CCC3CC4)c(Cc3ccccc3)n2)C[C@H]1OC (relative stereo) [Example 120, (3R)-3-[2-Benzyl-6-(cis-3,4-dimethoxyprrolidine-1-yl)-3-pyridyl]ethynyl-3-quinuclidinol] | – | – | – | Triglyceride biosynthesis inhibitive activity inhibition in 1 μM of the specimen [3]: 80%; IC50 [2]: 0.075 µM
